The values that follow come from patent US5210193A, “Piperazine derivatives” (American Cyanamid Company, priority 1990, dated 1993).

In brackets after ≈: the same amount, converted by molar mass.

Assay in all cases: in vitro antibacterial MIC, agar plate dilution
Type in all cases: cell-based

Assay [1] relates to Serratia marcescens F 0-35. Conditions: Serratia marcescens, F035, 18 h, 35° C., read-out: MIC. The method, boiled down:
(§1)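 Agar plate dilution on Mueller-Hinton agar, inoculum approximately 10^4 CFU per organism applied with a Steers replicator. MIC (mcg/ml) is the lowest compound concentration inhibiting visible growth after 18 hours at 35° C.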

The subject of assay [2] is Enterobacter cloacae VGH 84-37. Conditions: Enterobacter cloacae, VGH8437, 18 h, 35° C., read-out: MIC. The method, boiled down: as §1
The subject of assay [3] is Streptococcus faecalis ATTC 29212. The settings on record: Enterococcus faecalis, ATTC29212, 18 hours, 35° C., read-out: MIC. The method, boiled down:
as §1

The test system of assay [4] is Staphylococcus aureus CMC 83-127. Conditions: Staphylococcus aureus, CMC83127, 18 h, 35° C., read-out: MIC. The method, boiled down:
as §1

What is called MIC is the least concentration at which growth counts as inhibited.

As to `O=C(O)c1cn(C2CC2)c2cc(N3CCNC(c4ccco4)C3)c(F)cc2c1=O` (stereo not shown) [Example 62, 1-Cyclopropyl-6-fluoro-7-[3-(2-furanvl)-1-piperazinyl]-1,4-dihydro-4-oxo-3-quinolinecarboxylic acid], the MIC in assay [1] was 0.06 µg/mL (≈ 0.151 µM); in assay [2], 0.03 µg/mL (≈ 0.0755 µM); in assay [3], 0.25 µg/mL (≈ 0.629 µM); in assay [4], 0.008 µg/mL (≈ 0.0201 µM).
